Laboratory results published in patent US10617557B2, “Combined drug delivery methods and apparatus” (ForSight Vision4, Inc., priority 2010, dated 2020).
Converted amounts (≈) assume the structure as drawn. Like-named read-outs stand apart in the source and are kept apart here.

Experiments:
COX = conditions: cited from earlier work
[1] = cited from earlier work
[2] = representative of a small molecule, input of the calculation; cited from earlier work
[3] = vitreous, input of the calculation; cited from earlier work
[4] = Calculated release of COX inhibitors from the therapeutic device into the vitreous; set-up: species or system human; conditions: from half-life 3 hr
[5] = system: VEGF-induced cell proliferation, or receptor binding; conditions: depending on the target assay; cited from earlier work
[6] = Diffusion coefficients of proteins and small molecules; assay type: physicochemical; conditions: simulation parameter, Tables 4A and 4E
Text: If the reservoir solution is aqueous or has a viscosity similar to water, the value for the diffusion coefficient of the therapeutic agent (TA) in water at the temperature of interest may be used.
Small molecules have a diffusion coefficient similar to fluorescein (MW=330, D=4.8 to 6 e-6 cm^2/s from Stay, M S et al. Pharm Res 2003, 20(1), pp. 96-102). For example, the small molecule may comprise a glucocorticoid such as triamcinolone acetonide having a molecular weight of about 435.

[7] = rabbit and monkey, cited from earlier work
[8] = human eye; listed as ranibizumab; cited from earlier work
[9] = system: Grade IV choroidal neovascularization (CNV) lesions; conditions: intravitreal injection, all doses tested, cynomolgus monkeys; cited from earlier work

Nc1c(CC(=O)O)cccc1C(=O)c1ccc(Br)cc1 [bromfenac]
IC50 (ug/ml) (Inhibitory Level)* (COX): 0.0025 µg/mL (≈ 0.00748 µM)

Cc1ccc(-c2cc(C(F)(F)F)nn2-c2ccc(S(N)(=O)=O)cc2)cc1 [celecoxib]
Solubility in water [1]: approximately 3 ug/ml

O=C(c1ccccc1)c1ccc2n1CCC2C(=O)O (stereo not drawn) [ketorolac]
Diffusion coeff [2]: 5.0E−06 cm2/s
Half-life [3]: 3 h
Rate constant, k [4]: 5.545 day⁻¹
IC50 (ug/ml) (Inhibitory Level)* (COX): 0.007 µg/mL (≈ 0.0274 µM)

C[C@]12C=CC(=O)C=C1CC[C@H]1[C@@H]3C[C@@H](O)[C@](O)(C(=O)CO)[C@@]3(C)C[C@H](O)[C@@]12F [triamcinolone]
IC50 [5]: ~1.5 nM

ranibizumab [Lucentis™]
Diffusion coeff [6]: 1.0E−06 cm2/s
Half-life in the vitreous [7]: two to four
Half-life in the vitreous ([7]; listed as ranibizumab): approximately 3 days
Half-life in the vitreous [8]: 220 h
Development of Grade IV CNV lesions [9]: completely inhibited
